Patent US8415340B2, “Triazine kinase inhibitors” (Bristol-Myers Squibb Company, priority 2007, dated 2013)

Molecular target: IGF1-receptor (Homo sapiens, UniProt P08069)
Assay: IGF1-Receptor Tyrosine Kinase Assay
Assay type: biochemical
Conditions: in vitro kinase; ATP 25 μM; read-out: IGF1R kinase IC50
Experimental: D. IGF1-Receptor Tyrosine Kinase Assay
The assays were performed in U-bottom 384-well plates. The final assay volume was 30 μl prepared from 15 μl additions of enzyme and substrates (fluoresceinated IGF1R substrate peptide and ATP) and test compounds in assay buffer (100 mM HEPES pH 7.4, 10 mM MnCl2, 0.015% Brij35 and 4 mM DTT). The reaction was initiated by the combination of IGF1-receptor with substrates and test compounds. The reaction was incubated at room temperature for 60 min. and terminated by adding 30 μl of 35 mM EDTA to each sample. The reaction mixture was analyzed on the Caliper LabChip 3000 by electrophoretic separation of the fluorescent substrate and phosphorylated product. Inhibition data were calculated by comparison to no enzyme control reactions for 100% inhibition and vehicle-only reactions for 0% inhibition. The final concentration of reagents in the assays is ATP, 25 μM; FL-peptide, 1.5 μM; IGF1-Receptor, 14 nM; and DMSO, 1.6%. Dose response curves were generated to determine the concentration required inhibiting 50% of kinase activity (IC50). Compounds were dissolved at 10 mM in dimethylsulfoxide (DMSO) and evaluated at eleven concentrations, each in duplicate. IC50 values were derived by non-linear regression analysis.

Chain of IGF1-receptor (P08069 31-1367): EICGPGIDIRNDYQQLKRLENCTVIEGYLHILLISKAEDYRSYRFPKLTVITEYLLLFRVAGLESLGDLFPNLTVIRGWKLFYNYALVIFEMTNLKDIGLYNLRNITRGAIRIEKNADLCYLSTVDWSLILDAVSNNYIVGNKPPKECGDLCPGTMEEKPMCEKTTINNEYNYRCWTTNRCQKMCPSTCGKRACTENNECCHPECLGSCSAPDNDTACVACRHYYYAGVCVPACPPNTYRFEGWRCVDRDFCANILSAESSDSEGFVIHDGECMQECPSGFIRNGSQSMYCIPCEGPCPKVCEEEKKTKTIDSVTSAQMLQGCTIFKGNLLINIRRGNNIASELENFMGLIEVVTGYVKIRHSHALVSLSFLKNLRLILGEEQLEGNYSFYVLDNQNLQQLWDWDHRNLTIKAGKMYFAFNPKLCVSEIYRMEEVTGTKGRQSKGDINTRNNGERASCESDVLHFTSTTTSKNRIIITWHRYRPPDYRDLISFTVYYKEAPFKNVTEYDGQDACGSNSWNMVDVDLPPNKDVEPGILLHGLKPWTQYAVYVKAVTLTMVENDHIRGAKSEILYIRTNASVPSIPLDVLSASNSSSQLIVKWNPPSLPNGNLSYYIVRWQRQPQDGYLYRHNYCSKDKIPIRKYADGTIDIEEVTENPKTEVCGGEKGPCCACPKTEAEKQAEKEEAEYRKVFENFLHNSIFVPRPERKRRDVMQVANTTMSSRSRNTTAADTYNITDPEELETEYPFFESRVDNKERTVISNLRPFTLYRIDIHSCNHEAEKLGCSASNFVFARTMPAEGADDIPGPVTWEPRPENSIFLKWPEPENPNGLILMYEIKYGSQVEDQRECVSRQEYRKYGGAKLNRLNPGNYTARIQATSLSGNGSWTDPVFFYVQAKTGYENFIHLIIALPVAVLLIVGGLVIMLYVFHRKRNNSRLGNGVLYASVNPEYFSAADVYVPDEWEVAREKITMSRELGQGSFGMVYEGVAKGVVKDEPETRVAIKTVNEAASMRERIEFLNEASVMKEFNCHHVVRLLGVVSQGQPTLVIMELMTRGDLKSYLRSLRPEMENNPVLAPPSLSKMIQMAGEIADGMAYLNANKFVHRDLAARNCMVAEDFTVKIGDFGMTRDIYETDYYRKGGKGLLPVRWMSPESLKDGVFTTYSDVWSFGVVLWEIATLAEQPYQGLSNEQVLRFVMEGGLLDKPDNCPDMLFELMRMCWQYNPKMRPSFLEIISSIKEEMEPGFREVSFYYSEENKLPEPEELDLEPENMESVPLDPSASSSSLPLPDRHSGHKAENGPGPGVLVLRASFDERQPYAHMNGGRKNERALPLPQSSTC

Compound	IC50 [nM]
COc1nc(Nc2cc(C3CC3)[nH]n2)nc(N2C[C@@H](OC)C[C@H]2C(=O)Nc2cnccn2)n1 [Example 20, (2S,4S)-1-(4-(5-Cyclopropyl-1H-pyrazol-3-ylamino)-6-methoxy-1,3,5-triazin-2-yl)-4-methoxy-N-(pyrazin-2-yl)pyrrolidine-2-carboxamide]	7
COCCN1CCN(c2nc(Nc3cc(C4CC4)n[nH]3)nc(N3C[C@@H](OC)C[C@H]3C(=O)Nc3cnccn3)n2)CC1 [Example 25, (2S,4S)-1-(4-(3-Cyclopropyl-1H-pyrazol-5-ylamino)-6-(4-(2-methoxyethyl)piperazin-1-yl)-1,3,5-triazin-2-yl)-4-methoxy-N-(pyrazin-2-yl)pyrrolidine-2-carboxamide]	3
CO[C@H]1C[C@@H](C(=O)Nc2cnccn2)N(c2nc(NCCN(C)C)nc(Nc3cc(C4CC4)n[nH]3)n2)C1 [Example 27, (2S,4S)-1-(4-(3-Cyclopropyl-1H-pyrazol-5-ylamino)-6-(2-(dimethylamino)ethylamino)-1,3,5-triazin-2-yl)-4-methoxy-N-(pyrazin-2-yl)pyrrolidine-2-carboxamide]	7
CO[C@H]1C[C@@H](C(=O)Nc2cnccn2)N(c2nc(Nc3cc(C4CC4)[nH]n3)nc(N3CCSCC3)n2)C1 [Example 34, (2S,4S)-1-(4-(5-Cyclopropyl-1H-pyrazol-3-ylamino)-6-thiomorpholino-1,3,5-triazin-2-yl)-4-methoxy-N-(pyrazin-2-yl)pyrrolidine-2-carboxamide]	3
CO[C@H]1C[C@@H](C(=O)Nc2cnccn2)N(c2nc(Nc3cc(C4CC4)n[nH]3)nc(N3CCN(S(C)(=O)=O)CC3)n2)C1 [Example 46, (2S,4S)-1-(4-(3-Cyclopropyl-1H-pyrazol-5-ylamino)-6-(4-(methylsulfonyl)piperazin-1-yl)-1,3,5-triazin-2-yl)-4-methoxy-N-(pyrazin-2-yl)pyrrolidine-2-carboxamide]	3
CO[C@H]1C[C@@H](C(=O)Nc2cnccn2)N(c2nc(Nc3cc(C4CC4)[nH]n3)nc(-n3nc(C4CC4)cc3N)n2)C1 [Example 58, (2S,4S)-1-(4-(5-Amino-3-cyclopropyl-1H-pyrazol-1-yl)-6-(5-cyclopropyl-1H-pyrazol-3-ylamino)-1,3,5-triazin-2-yl)-4-methoxy-N-(pyrazin-2-yl)pyrrolidine-2-carboxamide]	95
CO[C@H]1C[C@@H](C(=O)Nc2ccc(F)nc2)N(c2nc(Nc3cc(C4CC4)n[nH]3)nc(N3CCOCC3)n2)C1 [Example 62, (2S,4S)-1-(4-(3-Cyclopropyl-1H-pyrazol-5-ylamino)-6-morpholino-1,3,5-triazin-2-yl)-N-(6-fluoropyridin-3-yl)-4-methoxypyrrolidine-2-carboxamide]	2
O=C(N[C@H]1CCCN(c2nc(Nc3cc(C4CC4)n[nH]3)nc(N3C[C@H](F)C[C@H]3C(=O)Nc3cnccn3)n2)C1)C1CC1 [Example 72, (2S,4R)-1-(4-((S)-3-(Cyclopropanecarboxamido)piperidin-1-yl)-6-(3-cyclopropyl-1H-pyrazol-5-ylamino)-1,3,5-triazin-2-yl)-4-fluoro-N-(pyrazin-2-yl)pyrrolidine-2-carboxamide]	56

The next lines start with the values.

IC50 [nM]	Compound
7	O=C(Nc1ncns1)[C@@H]1C[C@@H](F)CN1c1nc(Nc2cc(C3CC3)n[nH]2)nc(N2CCOCC2)n1 [Example 82, (2S,4R)-1-(4-(3-Cyclopropyl-1H-pyrazol-5-ylamino)-6-morpholino-1,3,5-triazin-2-yl)-4-fluoro-N-(1,2,4-thiadiazol-5-yl)pyrrolidine-2-carboxamide]
2	COCCN1CCN(c2nc(Nc3cc(C4CC4)n[nH]3)nc(N3C[C@@H](O)C[C@H]3C(=O)Nc3cnccn3)n2)CC1 [Example 87, (2S,4S)-1-(4-(3-Cyclopropyl-1H-pyrazol-5-ylamino)-6-(4-(2-methoxyethyl)piperazin-1-yl)-1,3,5-triazin-2-yl)-4-hydroxy-N-(pyrazin-2-yl)pyrrolidine-2-carboxamide]
44	CN1CCN(c2nc(Nc3cc(C4CC4)[nH]n3)nc(N3C[C@@H](O)C[C@@]3(C)C(=O)Nc3nccs3)n2)CC1 [Example 102, (2S,4S)-1-(4-(5-Cyclopropyl-1H-pyrazol-3-ylamino)-6-(4-methylpiperazin-1-yl)-1,3,5-triazin-2-yl)-4-hydroxy-2-methyl-N-(thiazol-2-yl)pyrrolidine-2-carboxamide]
108	COCCN1CCN(c2nc(Nc3cc(C4CC4)[nH]n3)nc(N3C[C@@H](O)C[C@@]3(C)C(=O)Nc3nccs3)n2)CC1 [Example 103, (2S,4S)-1-(4-(5-Cyclopropyl-1H-pyrazol-3-ylamino)-6-(4-(2-methoxyethyl)piperazin-1-yl)-1,3,5-triazin-2-yl)-4-hydroxy-2-methyl-N-(thiazol-2-yl)pyrrolidine-2-carboxamide]
43	CN1CC2CC1CN2c1nc(Nc2cc(C3CC3)[nH]n2)nc(N2C[C@@H](O)C[C@@]2(C)C(=O)Nc2nccs2)n1 (stereo partly drawn) [Example 104, (2S,4S)-1-(4-(5-Cyclopropyl-1H-pyrazol-3-ylamino)-6-(5-methyl-2,5-diazabicyclo[2.2.1]heptan-2-yl)-1,3,5-triazin-2-yl)-4-hydroxy-2-methyl-N-(thiazol-2-yl)pyrrolidine-2-carboxamide]
89	Cc1cnc(NC(=O)[C@]2(C)C[C@H](O)CN2c2nc(Nc3cc(C4CC4)[nH]n3)nc(N3CCOCC3)n2)s1 [Example 105, (2S,4S)-1-(4-(5-Cyclopropyl-1H-pyrazol-3-ylamino)-6-morpholino-1,3,5-triazin-2-yl)-4-hydroxy-2-methyl-N-(5-methylthiazol-2-yl)pyrrolidine-2-carboxamide]
7	CO[C@H]1C[C@@H](C(=O)N[C@@H]2CCCN(C)C2)N(c2nc(Nc3cc(C4CC4)[nH]n3)nc(N3CCOCC3)n2)C1 [Example 113, (2S,4S)-1-(4-(5-Cyclopropyl-1H-pyrazol-3-ylamino)-6-morpholino-1,3,5-triazin-2-yl)-4-methoxy-N—((R)-1-methylpiperidin-3-yl)pyrrolidine-2-carboxamide]
7	CN1CCN(c2nc(Nc3cc(C4CC4)n[nH]3)nc(N3CC(F)(F)C[C@H]3C(=O)Nc3cnccn3)n2)CC1 [Example 117, (S)-1-(4-(3-Cyclopropyl-1H-pyrazol-5-ylamino)-6-(4-methylpiperazin-1-yl)-1,3,5-triazin-2-yl)-4,4-difluoro-N-(pyrazin-2-yl)pyrrolidine-2-carboxamide]
3	O=C(Nc1cnccn1)[C@@H]1CC(F)(F)CN1c1nc(Nc2cc(C3CC3)n[nH]2)nc(N2CCN(CCO)CC2)n1 [Example 119, (S)-1-(4-(3-Cyclopropyl-1H-pyrazol-5-ylamino)-6-(4-(2-hydroxyethyl)piperazin-1-yl)-1,3,5-triazin-2-yl)-4,4-difluoro-N-(pyrazin-2-yl)pyrrolidine-2-carboxamide]
7	CN1CCN(c2nc(Nc3cc(C4CC4)n[nH]3)nc(N3[C@H](C(=O)Nc4cnccn4)C[C@@H]4C[C@@H]43)n2)CC1 [Example 122, (1S,3S,5S)-2-(4-(3-Cyclopropyl-1H-pyrazol-5-ylamino)-6-(4-methylpiperazin-1-yl)-1,3,5-triazin-2-yl)-N-(pyrazin-2-yl)-2-azabicyclo[3.1.0]hexane-3-carboxamide]

Test system: IGF1R-Sal tumors
Assay: IGF-1R Sal Tumor Model
Assay type: in vivo
Conditions: 3.13 mpk, orally, qd × 4 days, nude mice bearing IGF1R-Sal tumors
Experimental: P. IGF-1R Sal Tumor Model
A salivary gland adenocarcinoma that developed spontaneously in a transgenic mouse (MCI-19) was excised and cut into fragments of about 20 mg. Tumor fragments were implanted s.c. into the ventral thoracic region of a group of six female, athymic BALB/c nu/nu mice (Harley Sprague-Dawley, Indianapolis, Ind.), using a 13-gauge trocar. Once established, the salivary gland-derived tumor line was designated IGF1R-Sal and was propagated as a tumor xenograft in nude mice. Tumors were passaged every 2 weeks, at which time the tumor reached f500 to 1,000 mm3 in size. For treatment studies, nude micebearing IGF1R-Sal tumors of about 100 mm3 in size were sorted into groups of five for treatment with vehicle (80% polyethylene glycol 400 in water) alone or the test article. Compounds were administered either on a bid schedule (oral doses 8 hours apart) or on a once a day schedule orally (qd) for 4 consecutive days. Tumors were measured at the start and end of treatment. Activity was measured as % tumor growth inhibition (% TGI). The % TGI was determined using the following formula (Ct−Tt)/(Ct−Co) where Ct is defined as the median tumor size of the control group at the end of treatment, Co is defined as the median tumor size of the control group at the start of treatment, and Tt is defined as the median tumor size of the treated group at the end of treatment.

Compound	% TGI (3.13 mpk) [%]
CO[C@H]1C[C@@H](C(=O)Nc2cnccn2)N(c2nc(Nc3cc(C4CC4)n[nH]3)nc(N3CCOCC3)n2)C1 [Example 18, (2S,4S)-1-(4-(3-Cyclopropyl-1H-pyrazol-5-ylamino)-6-morpholino-1,3,5-triazin-2-yl)-4-methoxy-N-(pyrazin-2-yl)pyrrolidine-2-carboxamide]	96
O=C(Nc1cnccn1)[C@@H]1C[C@@H](F)CN1c1nc(Nc2cc(C3CC3)n[nH]2)nc(N2CCOCC2)n1 [Example 65, (2S,4R)-1-(4-(3-Cyclopropyl-1H-pyrazol-5-ylamino)-6-morpholino-1,3,5-triazin-2-yl)-4-fluoro-N-(pyrazin-2-yl)pyrrolidine-2-carboxamide]	80

Same assay, conditions: 6.25 mpk, orally, qd × 4 days, nude mice bearing IGF1R-Sal tumors

Compound	% TGI (6.25 mpk) [%]
CN1CCN(c2nc(Nc3cc(C4CC4)n[nH]3)nc(N3C[C@H](F)C[C@H]3C(=O)Nc3cnccn3)n2)CC1 [Example 68, (2S,4R)-1-(4-(3-Cyclopropyl-1H-pyrazol-5-ylamino)-6-(4-methylpiperazin-1-yl)-1,3,5-triazin-2-yl)-4-fluoro-N-(pyrazin-2-yl)pyrrolidine-2-carboxamide]	7
